Values belong to the molecule of their own block, whether it stands above or below them. Peptide text beside a SMILES is read from it.
Legend:
[1] = target: T1, neutral endopeptidase of cultivated human fibroblast (Homo sapiens, UniProt P08473); test: Inhibition test on neutral endopeptidase activity of cultivated human fibroblast; type: biochemical; conditions: enzyme solution from human fibroblast, substrate glutaryl-Ala-Ala-Phe-4-methoxy-2-naphthylamine
T1 construct: followed by ultrasonic pulverization, whereby an enzyme solution was obtained; host or cells: normal human fibroblasts, Triton X-100 lysate after sonication
T1 sequence (P08473 whole entry): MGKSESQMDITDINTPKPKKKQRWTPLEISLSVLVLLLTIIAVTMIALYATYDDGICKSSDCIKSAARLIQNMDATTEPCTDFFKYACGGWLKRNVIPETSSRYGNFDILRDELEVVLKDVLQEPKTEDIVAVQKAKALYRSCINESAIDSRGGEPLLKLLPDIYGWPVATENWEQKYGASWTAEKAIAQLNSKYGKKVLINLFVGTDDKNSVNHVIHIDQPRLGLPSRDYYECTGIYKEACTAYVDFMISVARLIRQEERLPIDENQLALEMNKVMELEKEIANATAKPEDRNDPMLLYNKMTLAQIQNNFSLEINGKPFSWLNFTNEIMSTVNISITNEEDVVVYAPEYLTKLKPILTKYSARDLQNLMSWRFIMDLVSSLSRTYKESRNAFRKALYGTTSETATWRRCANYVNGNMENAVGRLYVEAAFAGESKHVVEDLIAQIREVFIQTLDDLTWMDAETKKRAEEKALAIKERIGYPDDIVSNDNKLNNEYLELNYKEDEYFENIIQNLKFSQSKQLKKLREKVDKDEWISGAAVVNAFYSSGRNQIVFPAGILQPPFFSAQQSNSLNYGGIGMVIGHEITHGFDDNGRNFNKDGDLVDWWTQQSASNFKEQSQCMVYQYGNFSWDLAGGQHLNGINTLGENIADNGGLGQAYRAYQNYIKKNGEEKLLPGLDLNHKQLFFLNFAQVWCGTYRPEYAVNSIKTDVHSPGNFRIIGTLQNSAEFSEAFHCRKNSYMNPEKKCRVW
Excerpt: Test 1 Inhibition Test on Neutral Endopeptidase Activity of Cultivated Human Fibroblast
Normal human fibroblast commercially available from Dainippon Pharmaceutical Co., Ltd. was subcultured on a DME medium containing 10% bovine fatal serum and provided for the present test. The cells peeled by a rubber-policeman from a Petri dish were floated in a phosphate-buffered physiological saline, collected by a low-velocity centrifuge, and washed three times with the same physiological saline. The cells were floated in a 0.1% Triton X-100/0.2M tris-HCl buffer (pH 8.0), followed by ultrasonic pulverization, whereby an enzyme solution was obtained.
The enzyme activity was measured as follows: To 100 μL of an MES buffer (100 mM, pH 6.5) added with sodium chloride (300 mM), were added 2 μL of the enzyme solution, 1 μL of a solution of the invention compound and, as a substrate for the measurement of enzyme activity, 1 μL of 20 mM glutalyl-Ala-Ala-Phe-4-methoxy-2-naphthylamine, followed by reaction at 37° C. for 1 hour. Phosphoramldon was added to the reaction mixture to give its final concentration of 0.4 μM and then, the reaction was terminated. Aminopeptidase M having a final concentration of 20 mU was added to the reaction mixture and the resulting mixture were reacted at 37° C. for 15 minutes. The amount of the resulting 4-methoxy-2-naphthylamine was determined by measuring the fluorescent strength at excited wavelength of 340 nm and fluorescent wavelength of 425 nm by a fluorospectrophotometer and % inhibition of the compound against enzyme activity was determined.

C3H mice = test: Hair growth test (2) using mice; type: in vivo
Experimental: (1) Preparation of a Test Sample
Each of Compounds 1 to 3 and 7 was dissolved in a 50% ethanol solution, whereby a 1 mM solution was prepared.
Papain powder (produced by CALBIOCHEM-NOVABIOCHEM CORPORATION) was dissolved in purified water to prepare a 2% aqueous solution, followed by the addition of an equal amount of ethanol to prepare a 1% ethanol solution.
Trypsin powder (produced by Sigma Aldrich Corporation) was dissolved in Hanks' Balanced Salt Solution (produced by Gibco BRL) having 1 mM EDTA-4Na dissolved therein, followed by the addition of an equal amount of ethanol to prepare a 1% ethanol solution.
Chymotrypsin powder (produced by Sigma Aldrich Corporation) was treated in a manner similar to that employed for trypsin, whereby a 1% ethanol solution was prepared.
The back of 6-week-old C3H mice (each group consisting of 5 mice) was, shaved by 2×4 cm^2 by electric hair clippers or an electric shaver so as not to injure its skin. The sample was applied in an amount of 100 μL/once to the shaved portion twice a day for 4 weeks. To a control group, only a solvent was applied. Three weeks after depilation, the picture of the shaved portion was taken at a fixed magnification in order to observe the regrowth hair and the area of the hair regrowth (area of regrowth hair/shaved area) was compared with that of the control group by using an image analyzer.

[2] = compound 1 mM alone (Solvent column), 100 μL twice a day on shaved back
[3] = compound 1 mM combined with Papain 1%, 100 μL twice a day
[4] = proteolytic enzyme 1% alone (Solvent), 100 μL twice a day

- inhibition at 1000 µM ([1]; concentration 1 mM): 30.2%
Molecule: COC(=O)[C@H](Cc1ccccc1)NC(=O)[C@@H](N)CC(=O)O [Aspartame, Asp-Phe-OMe (aspartame)] (H-Asp-Phe-OMe)

Molecule: CC(C)CC(NP(=O)(O)CCc1ccccc1)C(=O)NC(Cc1c[nH]c2ccccc12)C(=O)O (centres unmarked) [Compound 2]
- Hair growth inhibition 3 weeks after depilation (C3H mice; [2]): 59.1
- Hair growth inhibition 3 weeks after depilation (C3H mice; [3]): 80.3

Molecule: O=C(O)CCNC(=O)C(CS)Cc1ccccc1 (centres unmarked) [Compound 7]
- Hair growth inhibition 3 weeks after depilation (C3H mice; [2]): 59.7
- Hair growth inhibition 3 weeks after depilation (C3H mice; [3]): 77.9

- inhibition at 1000 µM ([1]; concentration 1 mM): 23.8 ± 2.7%
Molecule: CCOC(=O)CNC(=O)CC(=O)OCC [Compound 8]

- inhibition at 100 µM ([1]; concentration 0.1 mM): 74.5 ± 9.3%
Molecule: CCOC(=O)CNC(=O)C(Cc1ccccc1)C(=O)OCC (centres unmarked) [Compound 9]

- inhibition at 100 µM ([1]; concentration 0.1 mM): 91.2 ± 3.7%
Molecule: O=C(O)CNC(=O)C(Cc1ccccc1)C(=O)O (centres unmarked) [Compound 10]

- inhibition at 100 µM ([1]; concentration 0.1 mM): 85.7 ± 2.2%
Molecule: CCOC(=O)CNC(=O)C(Cc1ccc(-c2ccccc2)cc1)C(=O)OCC (centres unmarked) [Compound 11]

- inhibition at 100 µM ([1]; concentration 0.1 mM): 69.5 ± 4.3%
Molecule: O=C(O)CCNC(=O)C(Cc1ccccc1)C(=O)O (centres unmarked) [Compound 12]

- inhibition at 1000 µM ([1]; concentration 1 mM): 49.3 ± 1.2%
Molecule: O=C(O)CC(=O)N[C@@H](Cc1ccccc1)C(=O)O [Compound 13]

- % inhibition ([1]; concentration 1 mM): 45.7%
Molecule: Asp-Phe

Molecule: Chymotrypsin
- Hair growth inhibition 3 weeks after depilation (C3H mice; [4]): 20.1

- % inhibition ([1]; concentration 1 mM): 85.4%
Molecule: Phe-Asp

- % inhibition ([1]; concentration 1 mM): 49.4%
Molecule: Phe-Gly

- % inhibition ([1]; concentration 1 mM): 72.9%
Molecule: Phe-Leu

- % inhibition ([1]; concentration 1 mM): 85.7%
Molecule: Phe-Phe

- % inhibition ([1]; concentration 0.1 mM): 92.6%
Molecule: Phe-β-Ala

Molecule: Trypsin
- Hair growth inhibition 3 weeks after depilation (C3H mice; [4]): 25.6

B1: Papain: proteolytic enzyme, papain powder (CALBIOCHEM-NOVABIOCHEM), 1% ethanol solution (protein, UniProt P00784 134-345, looked up)
Papain: IPEYVDWRQKGAVTPVKNQGSCGSCWAFSAVVTIEGIIKIRTGNLNEYSEQELLDCDRRSYGCNGGYPWSALQLVAQYGIHYRNTYPYEGVQRYCRSREKGPYAAKTDGVRQVQPYNEGALLYSIANQPVSVVLEAAGKDFQLYRGGIFVGPCGNKVDHAVAAVGYGPNYILIKNSWGTGWGENGYIRIKRGTGNSYGVCGLYTSSFYPVKN
- Hair growth inhibition 3 weeks after depilation (C3H mice; [4]): 17.3
